In patent EP4782448A1, “SUBSTITUTED PYRIDOTRIAZOLE COMPOUND, AND PREPARATION METHOD THEREFOR AND USE THEREOF” (Origiant Pharmaceutical Co., Ltd., priority 2023, dated 2025):
pEC50, pIC50: −log10 of the molar value. Read-outs that look alike come from different tables or passages of the source.

Tests used:
MLK2/3 kinase = experiment: In vitro MLK2/3 kinase assay (ADP-Glo method, ICE Bioscience); assay type: biochemical
Procedure: The in vitro MLK2/3 kinase assay utilized the ADP-Glo method provided by ICE Bioscience INC. A drug screening system based on MLK2/3 kinase was employed to evaluate the inhibiting ability of small molecule compounds against kinase activity. The experimental method is as follows: ADP-Glo Method • 1. 2 × ATP/substrate solution and 2 × kinase solution were prepared using kinase reaction buffer. • 2. 40 nL of the compound diluent was transferred into a 384-well plate using an Echo 655. After centrifugation, 2 µL of 2 × kinase solution was added to the 384-well plate, centrifuged at 1000 rpm for 1 min, and incubated at 25°C for 10 min; • 3.2 µL of 2 × substrate and ATP solution was added into the 384-well plate, centrifuged at 1000 rpm for 1 min, and incubated at 25°C for 60 min. • 4. 4 µL of ADP-Glo was transferred to a 384-well plate, centrifuged at 1000 rpm for 1 min, and incubated at 25°C for 40 min. • 5. 8 µL of test solution was transferred to a 384-well plate, centrifuged at 1000 rpm for 1 min, and incubated at 25°C for 40 min. • 6. The luminescence signal was read using a multifunctional microplate reader. • 7. Data Analysis
The IC50 (half inhibitory concentration) of a compound was obtained using the following non-linear fitting formula: Y = Bottom + (Top−Bottom)/(1+10^(∧)((LogIC50−X)*HillSlope)) [formula] • X: Compound concentration log value • Y: Compound inhibition rate (% inh)

RIPK1 Kinase = molecular target: T1, RIPK1 Kinase (Homo sapiens, UniProt Q13546); experiment: biochemical
T1 construct: purchased Eurofins (Kinase Profiler service)
T1 sequence (Q13546 1-671): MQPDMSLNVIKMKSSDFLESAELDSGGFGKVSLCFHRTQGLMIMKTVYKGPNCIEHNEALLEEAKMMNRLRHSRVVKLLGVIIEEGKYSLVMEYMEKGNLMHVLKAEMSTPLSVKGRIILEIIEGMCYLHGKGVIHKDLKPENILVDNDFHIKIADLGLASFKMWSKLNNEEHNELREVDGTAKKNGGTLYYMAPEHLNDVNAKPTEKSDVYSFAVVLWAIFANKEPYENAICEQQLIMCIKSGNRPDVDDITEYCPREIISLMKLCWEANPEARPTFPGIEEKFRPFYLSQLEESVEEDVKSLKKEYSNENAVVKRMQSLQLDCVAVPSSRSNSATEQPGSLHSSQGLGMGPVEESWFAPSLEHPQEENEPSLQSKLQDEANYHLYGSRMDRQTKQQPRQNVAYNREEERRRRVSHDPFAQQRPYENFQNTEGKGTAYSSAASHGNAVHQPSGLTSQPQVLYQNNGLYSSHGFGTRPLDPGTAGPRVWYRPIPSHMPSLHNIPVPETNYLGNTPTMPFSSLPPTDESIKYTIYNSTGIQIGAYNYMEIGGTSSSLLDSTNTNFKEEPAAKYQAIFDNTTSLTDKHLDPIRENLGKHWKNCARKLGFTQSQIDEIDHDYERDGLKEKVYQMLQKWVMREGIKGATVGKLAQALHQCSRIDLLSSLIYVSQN
Procedure: This assay was completed using the Kinase Profiler service provided by Eurofins. The experimental method was as follows: The small molecule compound to be tested (0.001-10 µM) and the protein kinase to be tested were incubated with a buffer containing a substrate, 10 mM magnesium acetate, and [γ-^33P-ATP]. The reaction was initiated by adding a Mg\ATPmix. After incubation at room temperature for a period of time, a 3% phosphate solution was added to the buffer to terminate the reaction. Subsequently, 10 µL of the reaction mixture was quantitatively pipetted and dropped onto P30 filter paper. The paper was washed three times with 75 mM phosphate solution and once with methanol. After drying, scintillation fluid was added for scinticounting. The inhibitory activity of the compound was expressed as the half-maximal inhibitory concentration (IC50). The IC50 values were derived by fitting the inhibition rates corresponding to the respective concentration gradients.

HT-29 cells = experiment: In vitro assay for protection of HT-29 cells from necroptosis (TNFα/Smac mimetic/Z-VAD-FMK induction, CCK8 readout); assay type: cell-based; conditions: read-out: HT-29 (EC50)
[1] = TNFα/Smac mimetic/Z-VAD-FMK for 24 h, inhibition of necroptosis
[2] = compound 0.001-10 µM, read-out: RIPK1(IC50)

Q: C[C@H](NC(=O)c1cn(C)c2ccc(-c3ccn4nc(NC(=O)CN(C)CCO)nc4c3)cc12)c1ccc(F)cc1 [Compound 74] was tested. Which pIC50 (MLK2/3 kinase) did it give?
A: 7.00 to 8.00

Q: And the pIC50 (RIPK1 Kinase)?
A: 7.00 to 8.00

Q: How did the pEC50 (HT-29 cells; [1]) turn out when CC(c1ccc(F)cc1)n1cnc(-c2cn(C)c3ccc(-c4ccn5nc(NC(=O)C6CC6)nc5c4)cc23)n1 (centres unmarked) [Compound 210] was run?
A: 6.00 to 7.00

Q: And the pIC50 (RIPK1 Kinase; [2])?
A: 5.00 to 6.00

Q: How did the pEC50 (HT-29 cells; Homo sapiens, HT-29, 24 h) turn out when CC(=O)Nc1nc2cc(-c3ccc4c(c3)c(C(=O)NC3CCc5cc(F)ccc53)cn4C)ccn2n1 (single isomer, unassigned) [Compound 127] was run?
A: 5.00 to 6.00

Q: What about the pIC50 (RIPK1 Kinase) of the same compound?
A: 6.00 to 7.00

Q: With C[C@H](NC(=O)c1cn(C)c2ccc(-c3ccn4nc(NC(=O)CN5C6CC7CC(C6)C(O)C5C7)nc4c3)cc12)c1ccc(F)cc1 (some centres unmarked) [Compound 59] as the compound, how does the pEC50 (HT-29 cells; [1]) read?
A: > 9.00

Q: And the pIC50 (RIPK1 Kinase; [2])?
A: 7.00 to 8.00

Q: How did the pEC50 (HT-29 cells; Homo sapiens, HT-29, 24 h) turn out when C[C@@H](c1ccc(F)cc1)N(C)C(=O)c1cn(C)c2ccc(-c3ccn4nc(NC(=O)C5CC5)nc4c3)cc12 [Compound 175] was run?
A: > 9.00

Q: And the pIC50 (RIPK1 Kinase)?
A: 7.00 to 8.00

Q: Which results are given for C[C@H](NC(=O)c1cn(C)c2ccc(-c3ccn4nc(NC(=O)CN5CCOCC5)nc4c3)cc12)c1ccc(F)cc1 [Compound 75]?
A: pIC50 (MLK2/3 kinase): 7.00 to 8.00; pIC50 (RIPK1 Kinase): 8.00 to 9.00

Q: C[C@H](NC(=O)c1cn(C)c2ccc(-c3ccn4nc(NC(=O)CN5CCC(O)CC5)nc4c3)cc12)c1ccc(F)cc1 [Compound 6] was tested. Which pIC50 (RIPK1 Kinase) did it give?
A: 7.00 to 8.00

Q: Which results are given for C[C@H](NC(=O)c1cn(C)c2ccc(-c3ccn4nc(NC(=O)CN5CC(O)CC5=O)nc4c3)cc12)c1ccc(F)cc1 (single isomer, unassigned) [Compound 3]?
A: pEC50 (HT-29 cells; Homo sapiens, HT-29, 24 h): 7.00 to 8.00; pIC50 (RIPK1 Kinase): 7.00 to 8.00

Q: How did the pIC50 (RIPK1 Kinase) turn out when C[C@H](NC(=O)c1cn(C)c2ccc(-c3ccn4nc(NC(=O)CN(C)C)nc4c3)cc12)c1ccc(F)cc1 [Compound 40] was run?
A: 7.00 to 8.00

Q: CC(=O)Nc1nc2cc(-c3ccc4c(c3)c(C(=O)N[C@H]3CCc5ccc(F)cc53)cn4C)ccn2n1 [Compound 124] was tested. Which pEC50 (HT-29 cells; Homo sapiens, HT-29, 24 h) did it give?
A: 8.00 to 9.00

Q: What about the pIC50 (RIPK1 Kinase) of the same compound?
A: 7.00 to 8.00

Q: With C[C@H](NC(=O)c1cn(C)c2ccc(-c3ccn4nc(NC(=O)CN5CCC6(CC5)OCCO6)nc4c3)cc12)c1ccc(F)cc1 [Compound 27] as the compound, how does the pIC50 (RIPK1 Kinase) read?
A: 7.00 to 8.00

Q: How did the pIC50 (RIPK1 Kinase) turn out when C[C@@H]1CN(CC(=O)Nc2nc3cc(-c4ccc5c(c4)c(C(=O)N[C@@H](C)c4ccc(F)cc4)cn5C)ccn3n2)C[C@H](C)O1 [Compound 46] was run?
A: 7.00 to 8.00
